Data as given in patent publication US20220091133A1, “METHODS AND ASSAYS FOR IMMUNE PHENOTYPING” (Washington University, priority 2020, published 2022).

Experiments:
[1] = test system: invasive fungal soft tissue infection (Trichosporon asahii, Fusarium, Saksenaea); test: IL-7 immunotherapy in a patient with intractable fungal wound sepsis (clinical course, lymphocyte count); assay type: in vivo, human
Method: Twenty-four hours later, the dosage was increased to 10 μg/kg and continued every 3-4 days for 7 doses. […] As illustrated by serial pictures of the wound, the most notable change following initiation of IL-7 was to slow the progression of the invasive soft tissue necrosis (FIG. 28B, green arrows).
In addition to decreased infectious spread and fungal proliferation, with improved wound healing and healthier-appearing tissue margins, clinical indicators of severity of disease improved within days of IL-7 treatment initiation with improvement of the fever curve, tachycardia, and tachypnea (FIG. 30). Laboratory evidence of resolution of the fungal invasion included progressive decreases in total white blood cell count and increasing absolute lymphocyte counts (FIG. 28A). The patient's absolute lymphocyte count increased >6-fold from a low of 600 lymphocytes/μL to >4000 lymphocytes/μL (upper limit of normal for absolute lymphocyte counts is 3500). Of note, the increase in the patient's absolute lymphocyte count was likely due to both the effect of IL-7 in inducing lymphocyte proliferation and to the resolution of the fungal infection.

[2] = test system: pSTAT5 in CD4 and CD8 T cells; test: Mass cytometry (CyTOF) of intracellular phospho-STAT5 in T cells; assay type: in vivo, human
Text: To measure the specific molecular effects underlying the increased T cell responsiveness induced by IL-7, we measured intracellular levels of phospho-STATS (pSTAT5) in CD4 and CD8 T cells using mass cytometry. STATS is the primary T cell differentiation signal downstream of the IL-7 receptor [12]. T cells were identified based on surface marker staining (CD45+/CD15−/CD66b−/CD56−/CD3+). We then measured the pSTAT5 signal intensity. IL-7 was associated with a 3-fold increase in activated STATS in CD4-T cells and a 2-fold increase in CD8-T cells (FIG. 28C).

[3] = test system: lymphocytes in infected wound; test: Anti-CD3 immunohistochemical staining of wound biopsies; assay type: in vivo, human; conditions: after initiation of IL-7
Text: A beneficial effect of IL-7 in infectious disorders is to increase expression of lymphocyte adhesion molecules and induce lymphocyte trafficking to sites of infection.

[4] = test system: peripheral blood mononuclear cells (T cell IFN-γ production); assay type: cell-based, human
[5] = test system: PBMCs (T cell IFN-γ production); test: ELISpot, CD3/CD28-stimulated IFN-γ in patient PBMCs before and after IL-7 therapy (Example 5); assay type: in vivo, human; conditions: concomitant with initiation of IL-7 treatment
[6] = test system: SARS-CoV-2-specific T cells; test: ELISpot, IFN-γ response to SARS-CoV-2 spike glycoprotein and nucleocapsid peptide pool (Example 5); assay type: in vivo, human; conditions: before vs after IL-7 therapy
[7] = test system: PBMCs (TNF-α-producing cells); test: ELISpot, lipopolysaccharide-stimulated TNF-α in patient PBMCs before and after IL-7 therapy (Example 5); assay type: in vivo, human; conditions: concomitant with initiation of IL-7 treatment
[8] = Enzyme-linked immunosorbent assays for plasma type I IFN levels (Example 5); assay type: in vivo, human; conditions: plasma of critically ill COVID-19 patient
[9] = test system: SARS-CoV-2; test: COVID-19-specific antibody levels (Example 5); assay type: in vivo, human; conditions: critically ill COVID-19 patient
[10] = test system: SARS-CoV-2
[11] = test system: lymphopenia in COVID-19; conditions: preliminary studies, reference 24; cited from earlier work

## IL-7: recombinant human IL-7, immunoadjuvant and potent T cell activator; R&D Systems ex vivo, RevImmune for patients
[1]; 3 μg/kg ideal body weight intramuscularly, day 59 postinjury
  tolerability of IL-7 test dose: well tolerated
[1]; 10 μg/kg every 3-4 days for 7 doses after test dose
  onset of significant improvement of clinical status after initiation of IL-7: 4 to 7 days
[1]; after resolution of wound fungal infection, >700 cm^2
  definitive closure of open wounds: > 90%
[1]; from a low of 600 lymphocytes/μL, upper limit of normal 3500
  absolute lymphocyte count reached: > 4000 lymphocytes/μL
[1]; fungal wound sepsis patient on IL-7
  increase of absolute lymphocyte count: > 6 fold
[2]; CD4-T cells
  increase in activated STAT5 (pSTAT5 signal intensity): 3 fold
[2]; CD8-T cells
  increase in activated STAT5 (pSTAT5 signal intensity): 2 fold
[2]; CyTOF, geometric mean raw signal intensity
  STAT5 expression in lymphocytes after initiation of IL-7 compared with pretreatment: doubling
[3]
  number of CD3+ lymphocytes in biopsies from the infected wound: marked increase
[4]
  T cell function on coincubation with both dexamethasone and IL-7: restored
[5]
  increase in the number of IFN-γ-producing T cells: multifold increases
[6]
  improvement in the number of SARS-CoV-2 spike protein and nucleocapsid specific T cells: over 30 fold
[7]
  increase in the number of TNF-α-producing cells: multifold increases
[8]; Post IL-7, Day 12
  IFN-α (all subtypes) plasma concentration: Undetectable
  IFN-β plasma concentration: 130 pg/mL
[8]; Post IL-7, Day 21
  IFN-α (all subtypes) plasma concentration: Undetectable
  IFN-β plasma concentration: 4.1 pg/mL
[9]; Post IL-7, Day 12
  Coronavirus disease immunoglobulin G/M/A: High positive
[9]; Post IL-7, Day 21
  Coronavirus disease immunoglobulin G/M/A: High positive
[10]; COVID-19 patient after IL-7
  increase of absolute lymphocyte count (ALC): ~10 fold
[10]; after IL-7 therapy
  discharged home, day of hospitalization: 24 days
[10]; after initiation of IL-7 therapy
  mechanical ventilation discontinued, day after ICU admission: 15 days
[11]
  increase of ALCs in COVID-19 disease patients treated with IL-7: two- to three-fold
  tolerability of IL-7 in COVID-19 disease patients: well tolerated
